Test results taken from patent US20230043518A1, “CANCER IMMUNOTHERAPY” (AXELIA ONCOLOGY PTY LTD, priority 2019, published 2023).

Tested on: 4T1.2 (breast cancer)
Assay: 4T1.2 breast cancer metastasis model
Format: in vivo, mouse
Conditions: compound 1 combined with anti-PD1 (data not shown)
Experimental: C57BL/6 or Balb/c Wild-type (WT) mice were purchased from Walter and Eliza Hall Institute for Medical Research or bred in house and maintained at the QIMR Berghofer Medical Research Institute. Mice greater than 8 weeks of age were sex-matched to the appropriate models. In all studies, no mice were excluded based on pre-established criteria and randomization was applied immediately prior to treatment in therapy experiments. Experiments were conducted as approved by the QIMR Berghofer Medical Research Institute Animal Ethics Committee.
Mouse B16F10 (melanoma), MC38 (colon adenocarcinoma) and 4T1.2 (breast cancer) cells were grown in Dulbecco's Modified Eagle Medium (DMEM) supplemented with 10% Fetal Calf Serum (Bovogen), 1% Glutamine (Gibco), and 1% Penicillin/Streptomycin (Gibco). B16F10 and 4T1.2 cells were maintained at 37° C., 5% CO2. MC38 cells were maintained at 37° C., 10% CO2. All cell lines were routinely tested negative for Mycoplasma, but cell line authentication was not routinely performed.
5×10^4 4T1.2 cells were injected into the 4th mammary fat pad in a volume of 50 μl (day 0). On day 12 after injection, primary tumours were surgically removed under isoflurane anesthesia. Mice were injected treated as indicated in figure legends on day 15, 18 and 21 after tumour cell injection. […] For this, macroscopic visible lung metastases were counted. […]

- weight loss: without affecting weight loss
SMILES: CCCCCCCCCCCCCCCC(=O)OCC(CSCC(N)C(=O)N[C@@H](CO)C(=O)NCCOCCOCCOCCOCCOCCOCCOCCOCCOCCOCCOCCOCCC(=O)NCC(N)=O)OC(=O)CCCCCCCCCCCCCCC (stereo partly shown) [compound 1]
